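Tested at 5 concentrations; 48 h exposure; 96-well plates; endpoints linearly interpolated, else capped at highest concentration. TGI marks complete inhibition of growth.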
Experiments:
Test in all cases: NCI tumour cell line growth inhibition, 48 h
NCI-H460 lung = tested on: NCI-H460 lung
RPMI-8226 leukemia = tested on: RPMI-8226 leukemia
SK-OV-3 ovarian = tested on: SK-OV-3 ovarian
A498 renal = tested on: A498 renal
K-562 leukemia = tested on: K-562 leukemia
UACC-62 melanoma = tested on: UACC-62 melanoma
MDA-MB-231 breast = tested on: MDA-MB-231 breast
RXF 393 renal = tested on: RXF 393 renal
MALME-3M melanoma = tested on: MALME-3M melanoma
MOLT-4 leukemia = tested on: MOLT-4 leukemia

Structure (SMILES)	TGI (NCI-H460 lung) [µM]	TGI (RPMI-8226 leukemia) [µM]	TGI (SK-OV-3 ovarian) [µM]	TGI (A498 renal) [µM]	TGI (K-562 leukemia) [µM]	TGI (UACC-62 melanoma) [µM]	TGI (MDA-MB-231 breast) [µM]	TGI (RXF 393 renal) [µM]	TGI (MALME-3M melanoma) [µM]	TGI (MOLT-4 leukemia) [µM]
COc1ccccc1C1C2=C(COC2=O)Oc2cc3c(cc21)OCO3 (stereo not drawn)	> 100	> 59.2	45.9	15.4	> 100	> 100	> 87.6	6.13	> 100	> 100
c1ccc(-c2csc3c2-n2cccc2C3N2CCCC2)cc1 (stereo not drawn)	> 100	> 100	–	> 100	> 100	–	> 100	> 100	> 100	> 100
O=c1oc2ccc([N+](=O)[O-])cc2nc1/C=C(\O)c1ccccc1	> 100	> 100	> 100	> 100	> 100	> 100	> 100	> 100	> 100	> 100
OC1(c2ccccc2)CC2CCC(C1)N2CCCC(O)(c1ccccc1)c1ccccc1 (stereo not drawn)	5.13	6.4	28.1	29.1	37.8	28.5	43.9	24.3	39.1	36.3
COc1ccccc1N1CCN(CCCCNC(=O)c2ccc([N+](=O)[O-])o2)CC1	12.5	> 68.4	56.7	22.8	> 60.5	18.4	77.1	25.2	7.94	> 62.5
CCOC(=O)c1c(N2CCCC2)[nH]c(=O)c(C(c2c(O)c(C(=O)OCC)c(N3CCCC3)[nH]c2=O)C(C)C)c1O	> 100	> 100	> 100	> 100	> 100	> 100	64.3	> 100	> 100	> 100
Cc1cccc2c(N)c3cccc(C(=O)NCC[N+](C)(C)Cc4ccc([N+](=O)[O-])n4C)c3nc12	> 46.6	52.5	> 78	> 63.1	> 31.6	> 79.6	> 72.6	> 72.7	41.3	25.4
Cc1ccc(C2(O)c3ccccc3C(=O)N(C)C2(O)c2ccc(C)cc2)cc1 (stereo not drawn)	75.8	> 100	> 100	> 100	> 100	> 100	> 100	> 100	> 100	35.1
O=[N+]([O-])c1cc(C2(N3CCCCC3)CCCCC2)sc1Br	29.5	4.45	31.2	16.1	14.1	23.5	27.4	13.2	20	8.12
O=C(O)c1cc(N=Nc2ccc([N+](=O)[O-])cc2)ccc1O	83	53.3	> 100	46.6	> 100	> 100	> 100	> 100	> 100	77
CC(C)C[S+]1C2=C([O-])CC(C)(C)CC2=Nc2ccccc21 (stereo not drawn)	> 100	> 100	> 100	> 100	> 100	> 100	> 100	> 100	> 100	> 100
O=C1c2ccccc2N=C(c2cc3c(cc2Cl)Sc2nccn2S3(=O)=O)OS(=O)(=O)N1c1ccccc1	> 100	46.4	> 100	> 100	74.5	50.1	56.2	84.7	> 100	32.8
CN(C(=O)[C@H](NC(=O)OCc1ccccc1)c1ccccc1)C1CCCCC1N1CCCC1 (stereo partly drawn)	> 100	> 100	> 100	> 100	> 100	> 100	> 100	> 100	> 100	> 100
COc1ccc2[nH]c3cc4c(=O)c5cc(OC)ccc5[nH]c4cc3c(=O)c2c1	> 100	> 100	> 100	> 100	> 100	> 100	> 100	> 100	> 100	> 100
c1ccc(-c2cnc(SC(c3ccccc3)c3ccccc3)[nH]2)cc1	46.8	48.5	> 100	> 100	> 100	42.1	> 100	78.5	73.9	> 100
CC(=N/NC(=S)N1CCCCCC1)/C(C)=N\NC(=S)N1CCCCCC1	31.4	> 100	8.85	3.47	> 100	12.7	> 22.8	8.88	11.1	> 100
